One data set concerns A. niger. Kind of data set: Evaluation of antibacterial property, minimum inhibitory concentration. The data set is classed as cell-based. Here is the method:
(§1) To evaluate an antibacterial property of the solvent compositions for extracting a natural material in examples 2 and 3, and comparative examples 3 and 4, minimum inhibitory concentration (MIC; %) of a total of five microorganisms was measured. A lower minimum inhibitory concentration (%) may denote a more excellent antibacterial property.

The next data set concerns C. albicans. The description is as above. The data set is classed as cell-based. Here is the method:
as §1

For a further data set, the system named is E. coli. Described as above. It is filed as cell-based. Here is the method:
as §1

Another data set has as its system P. aeruginosa. The description is as above. The data set is classed as cell-based. Here is the method: as §1
The next data set deals with S. aureus. The data set is described as above. The data set is classed as cell-based. The protocol: as §1
A further data set deals with skin. Put plainly: Evaluation of skin irritation, patch test (PCPC Safety Evaluation Guidelines, ICDRG standard). The data set is classed as in vivo, human. The settings on record: patch test on 32 people, 30 wt %. Here is the method: To evaluate skin irritation caused by solvent compositions for extracting a natural material in example 1 and comparative examples 1, 2 and 3, a patch test was conducted on a total of 32 people. The solvent compositions for extracting a natural material in example 1 and comparative examples 1, 2 and 3 were all at a concentration of 30 wt %, and the patch test was performed under the PCPC Safety Evaluation Guidelines and the ICDRG standard.

For `CC(O)C(C)O` (single isomer, unassigned) [Example 3, meso-2,3-butanediol], in the data set with A. niger, the “A. niger (MIC %)” value came to 12.5%. The “C. albicans (MIC %)” value in the data set with C. albicans is on record as 12.5%. The “E. coli (MIC %)” value in the data set with E. coli worked out at 12.5%. Moreover, the “P. aeruginosa (MIC %)” value with P. aeruginosa is 6.25%. For the same molecule, in the data set on S. aureus, the “S. aureus (MIC %)” value came out at 25%.

On to `CC(O)C(C)O` (centres unmarked) [compound 1, 2,3-butanediol], for which, in the data set with skin, the “Cases with skin irritation” value was determined as 0, the “Skin irritation category under ICDRG standard” value (from here on “Skin irritation category”) is “no skin irritation”, the “Skin irritation index 30 minutes” value is 0.0 and the “Skin irritation index 24 hours” value worked out at 0.0. Also, in the data set on skin, the “Skin irritation index 48 hours” value is 0.0.

On to `CC(O)C(C)O` (single isomer, unassigned) [Example 2, levo-2,3-butanediol], for which the “A. niger (MIC %)” value in the data set with A. niger is given as 12.5%. In the data set with C. albicans, the “C. albicans (MIC %)” value stood at 12.5%. In addition, the “E. coli (MIC %)” value in the data set with E. coli is reported as 15%. The “P. aeruginosa (MIC %)” value in the data set with P. aeruginosa is reported as 10%. Also, the “S. aureus (MIC %)” value in the data set on S. aureus was 25%.

Turning to `OCCCO` [Comparative example 2, 1,3-propanediol], in the data set on skin, the “Cases with skin irritation” value amounted to 0, the “Skin irritation category” value was “no skin irritation”, the “Skin irritation index 30 minutes” value is listed as 0.0 and the “Skin irritation index 24 hours” value came out at 0.0. Moreover, the “Skin irritation index 48 hours” value in the data set on skin is listed as 0.0.

For `CC(O)CCO` (centres unmarked) [Comparative example 3, 1,3-butanediol], in the data set with skin, the “Cases with skin irritation” value came out at 2, the “Skin irritation category” value is listed as “minor skin irritation”, the “Skin irritation index 30 minutes” value is listed as 0.5 and the “Skin irritation index 24 hours” value worked out at 0.0. Besides, the “Skin irritation index 48 hours” value with skin was found to be 0.0. Moreover, the “Cases with skin irritation” value with skin (listed as comparative example 3) is listed as “two”. The “A. niger (MIC %)” value in the data set with A. niger amounted to 12.5%. In addition, the “C. albicans (MIC %)” value with C. albicans is 12.5%. In addition, the “E. coli (MIC %)” value in the data set on E. coli was 17.5%. Moreover, in the data set on P. aeruginosa, the “P. aeruginosa (MIC %)” value was determined as 12.5%. In the data set on S. aureus, the “S. aureus (MIC %)” value is given as 25%.

Take `OCCCO` [Comparative example 4, 1,3-propanediol]: in the data set with A. niger, the “A. niger (MIC %)” value is 25%. In addition, in the data set on C. albicans, the “C. albicans (MIC %)” value was 25%. For the same molecule, the “E. coli (MIC %)” value in the data set with E. coli stood at 22%. In addition, the “P. aeruginosa (MIC %)” value with P. aeruginosa is reported as 12.5%. The “S. aureus (MIC %)” value in the data set on S. aureus is given as 25%.

Take `CC(O)C(C)O` (centres unmarked) [Example 1, 2,3-butanediol]: in the data set with skin, the “Cases with skin irritation” value worked out at 0, the “Skin irritation category” value is on record as “no skin irritation”, the “Skin irritation index 30 minutes” value is given as 0.0 and the “Skin irritation index 24 hours” value is given as 0.0. Moreover, the “Skin irritation index 48 hours” value in the data set with skin is given as 0.0.
